One may read the Ki as a dissociation constant, usually derived from enzyme kinetics or from competition with a known ligand.

Like-named read-outs stand apart in the source and are kept apart here.

The source of these data is publication PMC3598492, “Cannabinoid receptor type 2 (CB2)-selective N-aryl-oxadiazolyl-propionamides: synthesis, radiolabelling, molecular modelling and biological evaluation” (Organic and Medicinal Chemistry Letters, 2012).

This assay concerns the target T1, hCB2 (Homo sapiens, UniProt P34972).
T1 construct: host or cells: CHO (hCB2-CHO), crude membrane homogenates
Briefly: Competitive [3H]CP55,940 binding on membrane homogenates of hCB2-CHO cells. Conditions: for Binding to hCB2 in words: hCB2-CHO. Here is the method:
CHO cell lines stably transfected with human CB1 (hCB1-CHO; obtained from Euroscreen, Gosselies, Belgium) or human CB2 (hCB2-CHO; obtained from Paul L. Prather, Department of Pharmacology and Toxicology, College of Medicine, University of Arkansas for Medical Sciences, USA) were cultured in Ham's F12 medium or Dulbecco's modified Eagle's medium (DMEM) with 10% fetal calf serum, 100 IU/mL penicillin, 100 μg/mL streptomycin and 250 or 400 μg/mL of the selection antibiotic Geneticin (G418), respectively. The cells were cultured in a humidified atmosphere with 5% CO2 at 37°C. Confluent cell layers of 175-cm^2 flasks were scraped; cells were harvested by centrifugation (800 rpm, 3 min), counted by trypan blue staining, suspended in 200 μL of 50 mM tris(hydroxymethyl)aminomethane (TRIS; pH 7.4) at 4°C and stored at −32°C until the binding experiment.
Competitive binding experiments were performed with crude membrane homogenates obtained from hCB1-CHO or hCB2-CHO cells as described above. […] Incubations were terminated by rapid filtration through a GF-B glass fibre filter pre-incubated for 90 min at room temperature in freshly prepared 0.5% polyvinylpyrrolidone + 0.1% Tween 20 solution using a 48-well cell harvester (Brandel, Gaithersburg, MD, USA).
The corresponding inhibition constants (Ki) of test compounds were derived from the IC50 values using the Cheng-Prusoff equation [49]. All binding experiments were performed in triplicates, and data are given as mean values from independent experiments.

[1] abbreviates: read-out: Affinity (Ki) towards hCB2.

T1 sequence (P34972 whole entry): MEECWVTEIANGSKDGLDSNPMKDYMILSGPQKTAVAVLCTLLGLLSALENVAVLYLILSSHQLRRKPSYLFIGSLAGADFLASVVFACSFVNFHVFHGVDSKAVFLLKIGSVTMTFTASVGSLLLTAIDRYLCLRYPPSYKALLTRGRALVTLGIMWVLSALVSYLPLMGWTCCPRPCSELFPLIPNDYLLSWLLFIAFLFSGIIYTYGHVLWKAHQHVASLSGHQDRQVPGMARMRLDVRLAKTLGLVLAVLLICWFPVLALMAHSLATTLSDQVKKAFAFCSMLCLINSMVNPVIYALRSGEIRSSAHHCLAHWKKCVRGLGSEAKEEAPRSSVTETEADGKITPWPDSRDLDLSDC

Regarding `CC(C)(C)c1cc(NC(=O)CCc2nc(-c3ccc(Br)nc3)no2)no1` [Compound 1a, 3-(3-(6-Bromopyridin-3-yl)-1,2,4-oxadiazol-5-yl)-N-(5-tert-butylisoxazol-3-yl)propanamide], the “Binding to hCB2 in words” value is reported as “high affinity”. Besides, the Ki under setting [1] stood at 14.4 nM.

As to `CC(C)(C)c1cc(NC(=O)CCc2nc(-c3ccc(F)nc3)no2)no1` [Compound 1b, 3-(3-(6-Fluoropyridin-3-yl)-1,2,4-oxadiazol-5-yl)-N-(5-tert-butylisoxazol-3-yl)propanamide], the “Binding to hCB2 in words” value was “low affinity”. Moreover, where the note is “hCB2 expressed in CHO cells, 0.5 nM [3H]CP55,940, Cheng-Prusoff, read-out: Affinity (Ki) towards hCB2”, the inhibition constant (Ki) was above 100000 nM.

Turning to `CCn1ccc2cc(NC(=O)CCc3nc(-c4ccc(F)nc4)no3)ccc21` [Compound 3b, 3-(3-(6-Fluoropyridin-3-yl)-1,2,4-oxadiazol-5-yl)-N-(1-ethyl-1H-indol-5-yl)-propanamide], the “Binding to hCB2 in words” value was “low affinity”. Also, the Ki under setting [1] is above 100000 nM.

Take `O=C(CCc1nc(-c2ccc(F)cc2Br)no1)Nc1ccc2[nH]c3ccccc3c2c1` [Compound 4e, 3-(3-(2-Bromo-4-fluorophenyl)-1,2,4-oxadiazol-5-yl)-N-(9H-carbazol-3-yl)propanamide]: the “Binding to hCB2 in words” value was “no binding”. Besides, the Ki under setting [1] was above 100000 nM.

In the case of `Cn1c2ccccc2c2cc(NC(=O)CCc3nc(-c4ccc(F)cc4Br)no3)ccc21` [Compound 5e, 3-(3-(2-Bromo-4-fluorophenyl)-1,2,4-oxadiazol-5-yl)-N-(9-methyl-9H-carbazol-3-yl)propanamide], under setting [1], the Ki came out at 250 nM.

As for `CCn1c2ccccc2c2cc(NC(=O)CCc3nc(-c4ccc(Br)nc4)no3)ccc21` [Compound 6c, 3-(3-(6-Bromopyridin-3-yl)-1,2,4-oxadiazol-5-yl)-N-(9-ethyl-9H-carbazol-3-yl)propanamide], the “Binding to hCB2 in words” value is recorded as “low affinity”. Under setting [1], the Ki was 1920 nM.

`CCn1c2ccccc2c2cc(NC(=O)CCc3nc(-c4ccc([N+](=O)[O-])cc4C#N)no3)ccc21` [Compound 6f, 3-(3-(2-Cyano-4-nitrophenyl)-1,2,4-oxadiazol-5-yl)-N-(9-ethyl-9H-carbazol-3-yl)propanamide] had a Ki of 5.89 nM.

For `CCn1c2ccccc2c2cc(NC(=O)CCc3nc(-c4ccc(N)cc4F)no3)ccc21` [Compound 6i, 3-(3-(4-Amino-2-fluorophenyl)-1,2,4-oxadiazol-5-yl)-N-(9-ethyl-9H-carbazol-3-yl)propanamide], the Ki under setting [1] is above 100000 nM.

`CCn1c2ccccc2c2cc(NC(=O)CCc3nc(-c4ccc(F)cc4O)no3)ccc21` [Compound 6j, 3-(3-(4-Fluoro-2-hydroxyphenyl)-1,2,4-oxadiazol-5-yl)-N-(9-ethyl-9H-carbazol-3-yl)propanamide]: under setting [1], the Ki was found to be 5710 nM.

`CCn1c2ccccc2c2cc(NC(=O)CCc3nc(-c4ccc(F)cc4OCCF)no3)ccc21` [Compound 6k, 3-(3-(4-Fluoro-2-(2-fluoroethoxy)phenyl)-1,2,4-oxadiazol-5-yl)-N-(9-ethyl-9H-carbazol-3-yl)-propanamide]: the Ki under setting [1] came to 3190 nM.

Regarding `CCn1c2ccccc2c2cc(NC(=O)CCc3nc(-c4ccc(F)cc4OC)no3)ccc21` [Compound 6l, 3-(3-(4-Fluoro-2-methoxyphenyl)-1,2,4-oxadiazol-5-yl)-N-(9-ethyl-9H-carbazol-3-yl)-propanamide], the Ki under setting [1] stood at 223 nM.

In the case of `CCn1c2ccccc2c2cc(NC(=O)CCc3nc(-c4ccc(OC)cc4Br)no3)ccc21` [Compound 6m, 3-(3-(2-Bromo-4-methoxyphenyl)-1,2,4-oxadiazol-5-yl)-N-(9-ethyl-9H-carbazol-3-yl)propanamide], the Ki under setting [1] is above 100000 nM.
